Assay results: patent US10150761B2, “Substituted pyridine-piperazinyl analogues as RSV antiviral compounds” (Janssen Sciences Ireland UC, priority 2013, dated 2018)
Structures can show the parent of a compound that is named as a salt.

What was measured:
rgRSV224 virus = assay: Antiviral activity: rgRSV224 (GFP) replication in HeLa cells; assay type: cell-based, respiratory syncytial virus (RSV); conditions: human respiratory syncytial virus, HeLa, 72 h, read-out: RSV HELA pEC50, rgRSV224 virus (MOI=1), HeLa cells, GFP expression, three days post-virus exposure (converted)
Description: Black 384-well clear-bottom microtiter plates (Corning, Amsterdam, The Netherlands) were filled via acoustic drop ejection using the echo liquid handler (Labcyte, Sunnyvale, Calif.), 200 nL of compound stock solutions (100% DMSO) were transferred to the assay plates, 9 serial 4-fold dilutions of compound were made, creating per quadrant the same compound concentration. The assay was initiated by adding 10 μL of culture medium to each well (RPMI medium without phenol red, 10% FBS-heat inactivated, 0.04% gentamycin (50 mg/mL). All addition steps are done by using a multidrop dispenser (Thermo Scientific, Erembodegem, Belgium). Next, rgRSV224 virus (MOI=1) diluted in culture medium was added to the plates, rgRSV224 virus is an engineered virus that includes an additional GFP gene (Hallak L K, Spillmann D. Collins P L, Peeples M E.
(§1) Glycosaminoglycan sulfation requirements for respiratory syncytial virus infection; Journal of virology (2000), 74(22), 10508-13) and was in-licensed from the NIH (Bethesda, Md., USA). Finally, 20 μL of a HeLa cell suspension (3,000 cells/well) were plated. Medium, virus- and mock-infected controls were included in each test. The wells contain 0.05% DMSO per volume. Cells were incubated at 37° C. in a 5% CO2 atmosphere. Three days post-virus exposure, viral replication was quantified by measuring GFP expression in the cells by an in house developed MSM laser microscope (Tibotec. Beerse, Belgium). The EC50 was defined as the 50% inhibitory concentration for GFP expression. In parallel, compounds were incubated for three days in a set of white 384-well microtiter plates (Corning) and the cytotoxicity of compounds in HeLa cells was determined by measuring the ATP content of the cells using the ATPlite kit (PerkinElmer, Zaventem, Belgium) according to the manufacturer's instructions. The CC50 was defined as the 50% concentration for cytotoxicity.

[1] = Cytotoxicity in HeLa cells (ATP content, ATPlite kit); assay type: cell-based; conditions: human, three days incubation, read-out: TOX HELA pCC50 (converted)
Description: as §1

Row | Compound | EC50 (rgRSV224 virus) | CC50 at 3 days [1] | melting point
1 | COc1ccc(-c2ncccc2N2CCN(c3ccncc3)CC2)cc1 [Compound 5] | 427 nM | > 100000 nM | –
2 | c1cnc(-c2ccc3c(c2)CCO3)c(N2CCN(c3ccncc3)CC2)c1 [Compound 30] | 603 nM | 1700 nM | 200 °C
3 | CS(=O)(=O)Nc1ccc(-c2ncccc2N2CCN(c3ccncc3)CC2)cc1 [Compound 42] | 501 nM | > 100000 nM | 248 °C
4 | c1cnc(-c2cccc3ncccc23)c(N2CCN(c3ccncc3)CC2)c1 [Compound 31] | 724 nM | > 97700 nM | 96 °C
5 | OCCCn1ccc2cc(-c3ncccc3N3CCN(c4ccncc4)CC3)ccc21 [Compound 46] | 148 nM | 52500 nM | 110 °C
6 | CC1CN(c2cccnc2-c2ccc3ccn(C)c3c2)CCN1c1ccncc1 (stereo not drawn) [Compound 52] | 13.5 nM | 44700 nM | –
7 | c1cnc(-c2cc3ccccc3s2)c(N2CCN(c3ccncc3)CC2)c1 [Compound 21] | 204 nM | 10500 nM | 224 °C
8 | c1cnc(-c2ccc3[nH]ccc3c2)c(N2CCN(c3ccncc3)CC2)c1 [Compound 36] | 79.4 nM | 44700 nM | 252 °C
9 | N#CCCn1ccc2cc(-c3ncccc3N3CCN(c4ccncc4)CC3)ccc21 [Compound 51] | 74.1 nM | 55000 nM | –
10 | COc1cc(N2CCN(c3cccnc3-c3ccccc3)CC2)ccn1 [Compound 29] | 123 nM | 257 nM | –
11 | CC(=O)c1cccc(-c2nccnc2N2CCN(c3ccccc3)CC2)c1 [Compound 1] | 955 nM | 2290 nM | 172.56 °C
12 | c1cnc(-c2ccc3ncsc3c2)c(N2CCN(c3ccncc3)CC2)c1 [Compound 45] | 155 nM | > 100000 nM | 196 °C
13 | c1coc(-c2ccc(-c3ncccc3N3CCN(c4ccncc4)CC3)cc2)c1 [Compound 56] | 95.5 nM | 19500 nM | 224.32 °C
14 | c1cnc(-c2cccc3[nH]ccc23)c(N2CCN(c3ccncc3)CC2)c1 | – | – | 262 °C
15 | c1cnc(-c2ccc3cc[nH]c3c2)c(N2CCN(c3ccncc3)CC2)c1 [Compound 44] | 32.4 nM | 53700 nM | 195 °C
16 | c1cnc(-c2ccc3occc3c2)c(N2CCN(c3ccncc3)CC2)c1 [Compound 27] | 135 nM | 74100 nM | 192 °C
17 | CCn1ccc2cc(-c3ncccc3N3CCN(c4ccncc4)CC3)ccc21 [Compound 37] | 30.9 nM | 21900 nM | 110 °C
18 | c1cnc(-c2cccc3ccccc23)c(N2CCN(c3ccncc3)CC2)c1 [Compound 26] | 85.1 nM | 7410 nM | 90 °C
19 | c1cnc(-c2ccc3ccccc3c2)c(N2CCN(c3ccncc3)CC2)c1 [Compound 10] | 79.4 nM | 39800 nM | 162.05 °C
20 | COc1ccc(C(C)(O)c2ncccc2N2CCN(c3ccncc3)CC2)cc1 (stereo not drawn) [Compound 72] | 525 nM | > 100000 nM | –
21 | Cn1ccc2ccc(-c3ncccc3N3CCN(c4ccncc4)CC3)cc21 [Compound 41] | 11.5 nM | 49000 nM | 174.57 °C
22 | Clc1ccc(-c2ncccc2N2CCN(c3ccncc3)CC2)c(Cl)c1 [Compound 14] | 186 nM | 40700 nM | –
23 | Cn1ccc2cc(-c3ncccc3N3CCN(c4ccncc4)CC3)ccc21 [Compound 24] | 72.4 nM | 46800 nM | 197 °C
24 | c1ccc(-c2ncccc2N2CCN(c3ccncc3)CC2)cc1 [Compound 2] | 603 nM | 1120 nM | 204.15 °C
25 | c1cnc(-c2ccncc2)c(N2CCN(c3ccncc3)CC2)c1 [Compound 20] | 871 nM | > 100000 nM | 166 °C
26 | COc1ccc(-c2ncccc2N2CCN(c3ccncc3)CC2)cn1 [Compound 17] | 437 nM | > 97700 nM | 138 °C
27 | N#CCCn1ccc2ccc(-c3ncccc3N3CCN(c4ccncc4)CC3)cc21 [Compound 48] | 166 nM | > 100000 nM | –
28 | FC(F)(F)Oc1ccc(-c2ncccc2N2CCN(c3ccncc3)CC2)cc1 [Compound 25] | 871 nM | 33100 nM | 176 °C

Row | Compound | EC50 (rgRSV224 virus) | CC50 at 3 days [1] | melting point
29 | Fc1cccc(-c2ncccc2N2CCN(c3ccncc3)CC2)c1 [Compound 12] | 871 nM | > 100000 nM | 184.88 °C
30 | c1cnc(-c2cnc3ccccc3c2)c(N2CCN(c3ccncc3)CC2)c1 [Compound 33] | 219 nM | > 100000 nM | 182 °C
31 | COc1ccc(C(O)(c2ccc(OC)cc2)c2ncccc2N2CCN(c3ccncc3)CC2)cc1 [Compound 64] | 50.1 nM | > 93300 nM | –
32 | COc1ccc(-c2ccc(-c3ncccc3N3CCN(c4ccncc4)CC3)cc2)cc1 [Compound 62] | 257 nM | 11500 nM | 178 °C
33 | Cn1c(-c2ncccc2N2CCN(c3ccncc3)CC2)cc2ccccc21 [Compound 40] | 25.1 nM | 53700 nM | –
34 | c1cnc(-c2coc3ccccc23)c(N2CCN(c3ccncc3)CC2)c1 [Compound 38] | 132 nM | 44700 nM | 210 °C
35 | Fc1ccc(-c2ncccc2N2CCN(c3ccncc3)CC2)cc1 [Compound 13] | 603 nM | > 89100 nM | 173.62 °C
36 | c1cnc(-c2cccc3cc[nH]c23)c(N2CCN(c3ccncc3)CC2)c1 [Compound 39] | 851 nM | 55000 nM | 162 °C
37 | COCCCn1c(-c2ncccc2N2CCN(c3ccncc3)CC2)cc2ccccc21 (as salt: fumarate) | – | – | 168 °C
38 | c1cnc(-c2ccc3c(c2)OCO3)c(N2CCN(c3ccncc3)CC2)c1 [Compound 9] | 692 nM | > 100000 nM | 187.8 °C
39 | c1cnc(-c2ccc(N3CCCCC3)cc2)c(N2CCN(c3ccncc3)CC2)c1 [Compound 60] | 355 nM | 22900 nM | 92 °C
40 | Cn1ccc2cc(C(F)(F)F)c(-c3ncccc3N3CCN(c4ccncc4)CC3)cc21 [Compound 49] | 67.6 nM | 75900 nM | 120 °C
41 | Cn1cc(-c2ccc(-c3ncccc3N3CCN(c4ccncc4)CC3)cc2)cn1 [Compound 66] | 933 nM | 70800 nM | –
42 | COc1ccc(-c2ncccc2N2CCN(c3ccncc3)CC2)cc1OC [Compound 16] | 977 nM | > 100000 nM | –
43 | Cc1ccc(-c2ccc(-c3ncccc3N3CCN(c4ccncc4)CC3)cc2)o1 [Compound 65] | 191 nM | 11000 nM | 230 °C
44 | Clc1ccc(-c2ncccc2N2CCN(c3ccncc3)CC2)cc1 [Compound 15] | 309 nM | 891 nM | –
45 | CN(C)c1ccc(-c2ncccc2N2CCN(c3ccncc3)CC2)cc1 [Compound 34] | 295 nM | 74100 nM | –
46 | CC(C)Oc1ccc(-c2ncccc2N2CCN(c3ccncc3)CC2)cn1 [Compound 19] | 525 nM | 19100 nM | –
47 | c1cnc(-c2ccc(C3CCCCC3)cc2)c(N2CCN(c3ccncc3)CC2)c1 [Compound 61] | 832 nM | 3470 nM | –
48 | COc1ccc(C(O)c2ncccc2N2CCN(c3ccncc3)CC2)cc1 (stereo not drawn) [Compound 71] | 39800 nM | > 100000 nM | –
49 | N#Cc1ccc(-c2ncccc2N2CCN(c3ccncc3)CC2)cc1 [Compound 28] | 589 nM | > 100000 nM | –
50 | OC1(c2ccccc2)CCN(c2ncccc2N2CCN(c3ccncc3)CC2)CC1 [Compound 73] | 631 nM | 63100 nM | –
51 | Cn1nccc1-c1ccc(-c2ncccc2N2CCN(c3ccncc3)CC2)cc1 [Compound 67] | 407 nM | 97700 nM | –
52 | COc1cc(-c2ncccc2N2CCN(c3ccncc3)CC2)ccn1 [Compound 18] | 832 nM | > 97700 nM | –
53 | c1ccc(Cc2nccnc2N2CCN(c3ccncc3)CC2)cc1 [Compound 53] | 3390 nM | 75900 nM | –
54 | c1cc(N2CCN(c3nccnc3-c3ccc4occc4c3)CC2)ccn1 [Compound 7] | 871 nM | > 97700 nM | –
55 | Clc1cccc(-c2ncccc2N2CCN(c3ccncc3)CC2)c1 [Compound 3] | 550 nM | > 100000 nM | –
